The record followed here is ChEMBL document CHEMBL5506017, “Brain-Permeable Immunoproteasome-Targeting Macrocyclic Peptide Epoxyketones for Alzheimer's Disease” (J Med Chem, 2024).

Activity calls are given as the source filed them. The calls are words filed in the database; no cut-off is given here.

The nature of data set [1]: Apparent permeability of the compound across basal to apical side in human Caco-2 cells expressing Pgp/BCRP at 10 uM incubated for 120 mins by LC-MS/MS analysis. In kind it is ADME, cell-based. The note with it: caco-2, 2 h. A general note: Caco-2 monolayers are a common model of the intestinal barrier.
A short description of data set [2]: Efflux ratio of apparent permeability across basolateral to apical side over apical to basolateral side in human Caco-2 cells expressing Pgp/BCRP at 10 uM incubated for 120 mins by LC-MS/MS analysis. In kind it is ADME, cell-based. The conditions noted are these: caco-2, 2 h.
In data set [3] the target is T1, Proteasome subunit beta type-9 (Homo sapiens, UniProt P28065).
T1 sequence (P28065 whole entry): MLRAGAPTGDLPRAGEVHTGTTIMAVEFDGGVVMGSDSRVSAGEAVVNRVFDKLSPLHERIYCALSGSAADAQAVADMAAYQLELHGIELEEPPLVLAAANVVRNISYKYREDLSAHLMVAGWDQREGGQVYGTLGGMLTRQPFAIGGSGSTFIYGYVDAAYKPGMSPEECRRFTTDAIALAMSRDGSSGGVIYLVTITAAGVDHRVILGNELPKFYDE
The data set is described as follows: Inhibition of human LMP2 using Ac-PAL-AMC as substrate incubated for 1 hr by fluorescence based SpectraMax M5e plate reader.

Data set [4] is described as follows: Metabolic stability in human liver microsomes assessed as parent compound remaining at 2 uM measured at 60 mins by LC-MS/MS analysis. In kind it is ADME, Microsome. The conditions noted are these: 1 h.
Data set [5] is described as follows: Apparent permeability of the compound across apical to basolateral side in human Caco-2 cells expressing Pgp/BCRP at 10 uM incubated for 120 mins by LC-MS/MS analysis. In kind it is ADME, cell-based. The note with it: caco-2, 2 h.
The target of data set [6] is T2, Proteasome subunit beta type-9 (Mus musculus) (UniProt P28076).
T2 sequence (whole entry): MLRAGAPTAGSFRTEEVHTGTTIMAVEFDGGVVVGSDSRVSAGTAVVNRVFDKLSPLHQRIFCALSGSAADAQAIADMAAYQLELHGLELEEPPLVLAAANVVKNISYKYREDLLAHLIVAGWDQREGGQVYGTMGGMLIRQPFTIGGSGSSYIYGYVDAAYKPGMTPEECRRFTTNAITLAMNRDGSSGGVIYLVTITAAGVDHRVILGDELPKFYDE
The data set is described as follows: Covalent inhibition of LMP2 in mouse BV-2 cells assessed as band shift at 0.3 to 3 uM incubated for 24 hrs by Western blot analysis. The conditions noted are these: dose 0.3-3 µM. In kind it is cell-based.

A short description of data set [7]: Mutagenicity in Salmonella typhimurium TA100 at 0.01 to 100 uM incubated for 90 mins in absence of liver S9 fraction by AMES test. In kind it is toxicity. The conditions noted are these: salmonella enterica subsp. enterica serovar typhimurium, s9, 1.5 h, dose 0.01-100 µM.
Data set [8] can be described thus: Metabolic stability in human liver microsomes assessed as half life at 2 uM measured upto 60 mins by LC-MS/MS analysis. The note with it: 1 h. In kind it is ADME, Microsome.
A short description of data set [9]: Mutagenicity in Salmonella typhimurium TA98 at 0.01 to 100 uM incubated for 90 mins in presence of liver S9 fraction by AMES test. In kind it is toxicity, subcellular. The note with it: salmonella enterica subsp. enterica serovar typhimurium, s9, 1.5 h, dose 0.01-100 µM.
The next data set has as its system HMC3. The data set is described as follows: Cytotoxicity against human HMC3 cells assessed as reduction in cell viability at 30 to 100 uM incubated for 96 hrs by CellTiter 96 Aqueous One Solution Cell Proliferation Assay. The note with it: hmc3, 96 h, dose 30-100 µM. In kind it is toxicity, cell-based.
Data set [10] is described as follows: Mutagenicity in Salmonella typhimurium TA98 at 0.01 to 100 uM incubated for 90 mins in absence of liver S9 fraction by AMES test. In kind it is toxicity. The note with it: salmonella enterica subsp. enterica serovar typhimurium, s9, 1.5 h, dose 0.01-100 µM.
A short description of data set [11]: Cytotoxicity against human ARPE-19 cells assessed as reduction in cell viability incubated for 96 hrs by CellTiter 96 Aqueous One Solution Cell Proliferation Assay. In kind it is toxicity, cell-based.
Another data set deals with ARPE-19. The data set is described as follows: Cytotoxicity against human ARPE-19 cells assessed as reduction in cell viability at 30 to 100 uM incubated for 96 hrs by CellTiter 96 Aqueous One Solution Cell Proliferation Assay. In kind it is toxicity, cell-based. The conditions noted are these: arpe-19, 96 h, dose 30-100 µM.
Data set [12] can be described thus: Cytotoxicity against human HMC3 cells assessed as reduction in cell viability incubated for 96 hrs by CellTiter 96 Aqueous One Solution Cell Proliferation Assay. In kind it is toxicity, cell-based.
Data set [13] can be described thus: Mutagenicity in Salmonella typhimurium TA100 at 0.01 to 100 uM incubated for 90 mins in presence of liver S9 fraction by AMES test. In kind it is toxicity, subcellular. The conditions noted are these: salmonella enterica subsp. enterica serovar typhimurium, s9, 1.5 h, dose 0.01-100 µM.
Data set [14] can be described thus: Mutagenicity in Salmonella typhimurium TA98 at 1 mg/ml incubated for 90 mins in absence of liver S9 fraction by AMES test. In kind it is toxicity. The note with it: salmonella enterica subsp. enterica serovar typhimurium, s9, 1.5 h.

By IC50 is commonly meant the concentration that inhibits the measured activity by half. For the compound `C[C@]1(C(=O)[C@H](CC2=CCCC2)NC(=O)[C@@H]2Cc3ccc(cc3)OCCCCCCCC(=O)N3CCC[C@H]3C(=O)N2)CO1`, the Papp in [1] is reported as 1.05 10^-6 cm/s; in data set [5], 2.44 10^-6 cm/s. In addition, in data set [2], the Ratio is given as 0.43. Moreover, the IC50 in [3] came to 220 nM. Further, in [4], the Stability entry was “Unstable”.

Take `C[C@]1(C(=O)[C@H](CC2=CCCC2)NC(=O)[C@@H]2COCCCCCC(=O)N3C[C@H](F)C[C@H]3C(=O)N2)CO1`: the Papp in data set [1] is given as 9.06 10^-6 cm/s; in [5], 8.03 10^-6 cm/s. For the same compound, the Ratio in [2] was 1.13. Further, in data set [6], the inhibition result is “Active”. Also, the IC50 in [3] was found to be 137 nM. Also, the Activity result (in data set [7]; in data set [9]; in the data set with HMC3; in [10]; in the data set on ARPE-19; in data set [13]) was “Non-Toxic” each time. For the same compound, the t1/2 in data set [8] amounted to 8.29 min. In addition, the IC50 at 96 h in [11] and in data set [12] was greater than 100000 nM each time. Further, the Stability in [4] turned out to be 0.3%.

In the case of `CC(C)C[C@H](NC(=O)[C@H](CCc1ccccc1)NC(=O)CN1CCOCC1)C(=O)N[C@@H](Cc1ccccc1)C(=O)N[C@@H](CC(C)C)C(=O)[C@@]1(C)CO1` [CARFILZOMIB], the Papp in data set [1] is 5.16 10^-6 cm/s; in [5] it was 0.558 10^-6 cm/s. Moreover, in data set [2], the Ratio stood at 9.33. Besides, the t1/2 in [8] is listed as 1.34 min. Moreover, the concentration for half-maximal inhibition (IC50) at 96 h came out at 58 nM in [11] and 16 nM in data set [12]. The Stability entry in data set [4] is “Unstable”.

Take `CC(C)C[C@H](NC(=O)[C@@H]1COCCCCCC(=O)N2CC(F)(F)C[C@H]2C(=O)N1)C(=O)[C@@]1(C)CO1`: the Activity entry was “Toxic” in data set [14], “Non-Toxic” in the data set with HMC3 and “Non-Toxic” with ARPE-19. For the same compound, the Papp in [1] is recorded as 14.4 10^-6 cm/s; in data set [5], 29.1 10^-6 cm/s. The Ratio in [2] turned out to be 0.52. In addition, the t1/2 in data set [8] was determined as 21.6 min. For the same compound, the concentration for half-maximal inhibition (IC50) at 96 h in data set [11] and in [12] was greater than 100000 nM in each case. Moreover, the Stability in [4] is reported as 13.5%.

As to `C[C@]1(C(=O)[C@H](Cc2ccccc2)NC(=O)[C@@H]2COCCCCCC(=O)N3C[C@H](F)C[C@H]3C(=O)N2)CO1`, the Papp in data set [1] is given as 12.6 10^-6 cm/s; in data set [5] it was 7.52 10^-6 cm/s. Also, the Ratio in data set [2] is 1.68. The compound also registered an IC50 in data set [3] of 127 nM. In addition, in [8], the t1/2 is 13.4 min. Also, the Stability in data set [4] was 4.57%.

Regarding `C[C@]1(C(=O)[C@H](Cc2ccccc2)NC(=O)[C@H](CO)NC(=O)c2cccc(=O)[nH]2)CO1`, the IC50 at 96 h in data set [11] was greater than 30000 nM; in [12], 24100 nM.

For `CC(C)C[C@H](NC(=O)[C@@H]1COCCCCCCC(=O)NCC(=O)N2CCC[C@H]2C(=O)N1)C(=O)[C@@]1(C)CO1`, the Papp was 8.64 10^-6 cm/s in data set [1] and 0.39 10^-6 cm/s in data set [5]. Further, the Ratio in data set [2] was determined as 22.2. Further, in data set [8], the t1/2 worked out at 24.1 min. Also, in data set [4], the Stability came out at 17%.

With `C[C@]1(C(=O)[C@H](Cc2ccccc2)NC(=O)[C@@H]2Cc3ccc(cc3)OCCCCCCCC(=O)N3CCC[C@H]3C(=O)N2)CO1`, the Papp in [1] is reported as 3.33 10^-6 cm/s; in data set [5], 5.91 10^-6 cm/s. For the same compound, the Ratio in data set [2] stood at 0.56. Further, the t1/2 in data set [8] came to 1.35 min. Besides, the Stability entry in data set [4] is on record as “Unstable”.

With `CC(C)C[C@H](NC(=O)[C@@H]1COCCCCCC(=O)N2CC[C@H]2C(=O)N1)C(=O)[C@@]1(C)CO1`, the Papp in [1] is 14.8 10^-6 cm/s; in data set [5] it was 6.8 10^-6 cm/s. Moreover, the Ratio in data set [2] is given as 2.17. In addition, the Activity entry (in data set [7]; in [9]; in the data set with HMC3; in data set [10]; with ARPE-19; in [13]) was “Non-Toxic” each time. Moreover, the t1/2 in [8] came out at 43 min. For the same compound, the figures for the IC50 at 96 h in data set [11] and in data set [12] were greater than 100000 nM and greater than 30000 nM, respectively. In [4], the Stability is 38.8%.

On to `CC(C)C[C@H](NC(=O)[C@@H]1COCCCCCC(=O)NCC(=O)N2CCC[C@H]2C(=O)N1)C(=O)[C@@]1(C)CO1`, for which the Papp is on record as 7.25 10^-6 cm/s in [1] and 0.454 10^-6 cm/s in data set [5]. Moreover, the Ratio in data set [2] was 21.7. Also, in data set [8], the t1/2 worked out at 55.3 min. Moreover, in data set [4], the Stability is reported as 46.4%.
